Test results reported in patent US20100041613A1, “NOVEL ANTIBIOTIC COMPOSITIONS” (priority 2006, published 2010).
Converted amounts (≈) assume the structure as drawn.

What was measured:
[1] = system: methicillin resistant Staphylococcus aureus (MRSA) ATCC#33591; assay: microbe, parasite or virus in culture; type: cell-based
Experimental: (§1) Antibiotic compositions of the invention were tested for antimicrobial activity against methicillin resistant Staphylococcus aureus (MRSA) ATCC#33591 and vancomycin resistant Enterococcus faecalis (VRE) ATCC#51575. Pathogen cultures were grown in tryptic soya broth (TSB) with 5 g/L NaCl (TSB+) overnight (˜18 hrs) at 37° C. The cultures were removed from the incubator and refrigerated at least 3 hours to stop further culture growth. Determined aliquot ratios of culture to broth to obtain approximately 2.5×10^5 CFU/ml., for which accurate counts were measured by serial dilution onto Tryptic Soy Agar with 5 g/L NaCl (TSA+) plates. Two fold dilution series' of […] were prepared for MRSA and VRE, respectively. All components except thiazolyl blue tetrazolium bromide (MTT) were added to the wells prior to an initial overnight incubation at 37° C. MTT was added to each well, 29 μl or […], for MRSA or VRE plates, respectively, followed by 1 hour incubation at 37° C. Vancomycin and/or Zyvoxam were included as reference compounds with vancomycin prepared in the same way as the test compounds. Zyvoxam was supplied as a 2 mg/ml solution. Minimum inhibitory concentration (MIC) endpoints were read as the lowest concentration showing no visible growth.

[2] = system: vancomycin resistant Enterococcus faecalis (VRE) ATCC#51575; assay: organism not typed; type: cell-based
Experimental: as §1

[3] = MRSA, lowest concentration showing no visible growth, overnight incubation at 37° C.
[4] = VRE, lowest concentration showing no visible growth, overnight incubation at 37° C.

C=C1NC(=O)[C@H]([C@@H](C)CC)NC(=O)[C@H](NC(=O)C(=CC)NC(=O)[C@@H](N)[C@@H](C)CC)CSC[C@@H](C(=O)N[C@H]2C(=O)N3CCC[C@H]3C(=O)NCC(=O)N[C@H](C(=O)N[C@@H](CCCCN)C(=O)NCCCCCCNC(=O)[C@H]3NC(=O)[C@H]4NC(=O)[C@H](NC(=O)[C@@H]5NC(=O)[C@H](CC(N)=O)NC(=O)[C@H](NC(=O)[C@@H](CC(C)C)NC)[C@H](O)c6ccc(c(Cl)c6)Oc6cc5cc(c6O[C@@H]5O[C@H](CO)[C@@H](O)[C@H](O)[C@H]5O[C@H]5C[C@](C)(N)[C@H](O)[C@H](C)O5)Oc5ccc(cc5Cl)[C@H]4O)c4ccc(O)c(c4)-c4c(O)cc(O)cc43)CSC2C)NC(=O)[C@H](CC(C)C)NC1=O (stereo partly shown) [Example 2, nisin(1-12)-1,6-diaminohexane-vancomycin]
minimum inhibitory concentration against MRSA ([1]; methicillin resistant ATCC#33591, 18 h): 0.04 µg/mL (≈ 0.0149 µM)
minimum inhibitory concentration against VRE ([2]; vancomycin resistant (VRE) ATCC#51575, 18 h): 20 µg/mL (≈ 7.46 µM)

CN[C@H](CC(C)C)C(=O)N[C@H]1C(=O)N[C@@H](CC(N)=O)C(=O)N[C@H]2C(=O)N[C@H]3C(=O)N[C@H](C(=O)N[C@H](C(=O)O)c4cc(O)cc(O)c4-c4cc3ccc4O)[C@H](O)c3ccc(c(Cl)c3)Oc3cc2cc(c3O[C@@H]2O[C@H](CO)[C@@H](O)[C@H](O)[C@H]2O[C@H]2C[C@](C)(N)[C@H](O)[C@H](C)O2)Oc2ccc(cc2Cl)[C@H]1O [vancomycin]
MIC ([1]; Staphylococcus aureus, read-out: minimum inhibitory concentration against MRSA): 1.2 µg/mL (≈ 0.828 µM)
MIC ([2]; read-out: minimum inhibitory concentration against VRE): 500 µg/mL (≈ 345 µM)

CC(=O)NC[C@H]1CN(c2ccc(N3CCOCC3)c(F)c2)C(=O)O1 [zyvoxam]
minimum inhibitory concentration against MRSA [1, 3]: 0.3 µg/mL (≈ 0.889 µM)
minimum inhibitory concentration against VRE [2, 4]: 1.2 µg/mL (≈ 3.56 µM)

Nisin[1-12] polypeptide fragment
highest concentration at which MRSA was not inhibited ([1]; MRSA, did not inhibit at as high as the stated concentration): > 10 µg/mL
highest concentration at which VRE was not inhibited ([2]; VRE, did not inhibit at as high as the stated concentration): > 40 µg/mL

nisin
minimum inhibitory concentration against MRSA [1, 3]: 0.3 to 0.6 µg/mL
minimum inhibitory concentration against VRE [2, 4]: 5 to 10 µg/mL
